In ChEMBL document CHEMBL1909046, “DrugMatrix in vitro pharmacology data”:
Where a SMILES comes first, the peptide text is derived from it. Bridges are numbered along the chain shown (N, C = ends). [ ]: non-standard residue; d: D form. The star is where a group is joined. Ileψ(thiazoline)Cys = CC[C@H](C)[C@H](N)C1=N[C@H](C(=O)*)CS1; dOrn = NCCC[C@@H](N)C(=O)O

Experiments:
[1] = DRUGMATRIX: ATPase, Na+/K+ enzyme inhibition (substrate: ATP); assay type: tissue-based, Sus scrofa, Heart; conditions: Not Active = under 50% inhibition at 10 µM
[2] = target: T1, Substance-K receptor (Homo sapiens, UniProt P21452); assay type: cell membranes, CHO, Membrane; also: in other assays of this panel Not Active means under 50% inhibition at 10 µM
T1 sequence (P21452 whole entry): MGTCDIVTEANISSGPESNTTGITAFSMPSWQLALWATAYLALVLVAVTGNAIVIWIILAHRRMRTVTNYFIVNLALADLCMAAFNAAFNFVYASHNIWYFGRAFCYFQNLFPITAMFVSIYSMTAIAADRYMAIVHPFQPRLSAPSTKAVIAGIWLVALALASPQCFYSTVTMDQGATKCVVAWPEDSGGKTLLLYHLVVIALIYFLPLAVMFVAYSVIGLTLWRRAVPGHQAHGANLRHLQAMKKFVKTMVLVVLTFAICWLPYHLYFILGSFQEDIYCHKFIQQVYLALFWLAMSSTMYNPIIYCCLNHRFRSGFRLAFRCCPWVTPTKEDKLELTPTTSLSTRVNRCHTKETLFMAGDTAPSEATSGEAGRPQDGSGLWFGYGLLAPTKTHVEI

[3] = target: T2, Thromboxane-A synthase (Homo sapiens, UniProt P24557); test: biochemical; assay type: tissue-based, Platelet;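 also: enzyme inhibition assay with PGH2 supplied as substrate; in other assays of this panel Not Active means under 50% inhibition at 10 µM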
T2 sequence (P24557 whole entry): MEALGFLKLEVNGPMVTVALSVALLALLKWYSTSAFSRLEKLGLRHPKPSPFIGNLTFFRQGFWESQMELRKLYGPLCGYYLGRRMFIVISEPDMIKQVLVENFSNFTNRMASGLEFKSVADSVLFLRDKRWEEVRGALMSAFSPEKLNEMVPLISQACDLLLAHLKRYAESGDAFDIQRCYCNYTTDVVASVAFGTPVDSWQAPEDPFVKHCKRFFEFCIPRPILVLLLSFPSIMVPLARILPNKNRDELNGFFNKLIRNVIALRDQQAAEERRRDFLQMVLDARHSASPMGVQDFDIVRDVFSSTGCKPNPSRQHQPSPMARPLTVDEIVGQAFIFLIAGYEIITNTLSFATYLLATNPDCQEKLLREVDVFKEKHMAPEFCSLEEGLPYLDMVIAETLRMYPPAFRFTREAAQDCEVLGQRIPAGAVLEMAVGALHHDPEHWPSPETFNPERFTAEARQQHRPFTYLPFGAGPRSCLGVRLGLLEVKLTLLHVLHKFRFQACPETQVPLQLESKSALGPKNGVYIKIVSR

[4] = target: T3, C-X-C chemokine receptor type 1 (Homo sapiens, UniProt P25024); also: in other assays of this panel Not Active means under 50% inhibition at 10 µM
T3 sequence (P25024 whole entry): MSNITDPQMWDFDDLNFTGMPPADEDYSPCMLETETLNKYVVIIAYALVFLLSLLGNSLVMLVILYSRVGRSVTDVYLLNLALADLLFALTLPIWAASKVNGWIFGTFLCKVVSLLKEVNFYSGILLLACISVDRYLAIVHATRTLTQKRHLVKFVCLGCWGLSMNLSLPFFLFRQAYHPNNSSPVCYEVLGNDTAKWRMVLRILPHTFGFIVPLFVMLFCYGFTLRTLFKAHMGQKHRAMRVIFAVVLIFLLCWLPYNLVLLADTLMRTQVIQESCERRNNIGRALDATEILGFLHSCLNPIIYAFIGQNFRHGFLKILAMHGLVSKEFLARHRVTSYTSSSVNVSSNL

[5] = target: Melanocortin receptor 3 (Homo sapiens, UniProt P41968); assay type: cell membranes, Membrane; conditions: hek293; also: in other assays of this panel Not Active means under 50% inhibition at 10 µM
Melanocortin receptor 3, sequence (P41968 whole entry): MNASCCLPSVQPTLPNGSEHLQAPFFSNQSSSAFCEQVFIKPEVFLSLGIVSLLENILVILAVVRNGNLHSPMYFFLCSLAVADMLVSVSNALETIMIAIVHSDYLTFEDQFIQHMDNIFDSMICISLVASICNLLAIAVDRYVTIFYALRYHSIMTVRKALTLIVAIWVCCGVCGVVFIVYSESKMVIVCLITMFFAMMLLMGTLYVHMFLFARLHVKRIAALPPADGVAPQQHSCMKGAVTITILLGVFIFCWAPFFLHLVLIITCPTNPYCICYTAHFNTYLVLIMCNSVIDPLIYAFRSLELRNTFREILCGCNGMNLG

[6] = DRUGMATRIX: Nicotinic Acetylcholine radioligand binding (ligand: [125I] Epibatidine); assay type: cell membranes, Membrane; conditions: imr-32; Not Active = under 50% inhibition at 10 µM
[7] = target: cGMP-specific 3',5'-cyclic phosphodiesterase (Homo sapiens, UniProt O76074); test: DRUGMATRIX: Phosphodiesterase PDE5 enzyme inhibition (substrate: [3H]cGMP + cGMP); assay type: tissue-based, Platelet; conditions: platelet; Not Active = under 50% inhibition at 10 µM
[8] = target: Protein phosphatase 3 catalytic subunit alpha (Homo sapiens, UniProt Q08209); set-up: species or system Escherichia coli
[9] = target: T4, Cytochrome P450 1A2 (Homo sapiens, UniProt P05177); conditions: bti-tn-5b1-4; also: in other assays of this panel Not Active means under 50% inhibition at 10 µM
T4 sequence (P05177 whole entry): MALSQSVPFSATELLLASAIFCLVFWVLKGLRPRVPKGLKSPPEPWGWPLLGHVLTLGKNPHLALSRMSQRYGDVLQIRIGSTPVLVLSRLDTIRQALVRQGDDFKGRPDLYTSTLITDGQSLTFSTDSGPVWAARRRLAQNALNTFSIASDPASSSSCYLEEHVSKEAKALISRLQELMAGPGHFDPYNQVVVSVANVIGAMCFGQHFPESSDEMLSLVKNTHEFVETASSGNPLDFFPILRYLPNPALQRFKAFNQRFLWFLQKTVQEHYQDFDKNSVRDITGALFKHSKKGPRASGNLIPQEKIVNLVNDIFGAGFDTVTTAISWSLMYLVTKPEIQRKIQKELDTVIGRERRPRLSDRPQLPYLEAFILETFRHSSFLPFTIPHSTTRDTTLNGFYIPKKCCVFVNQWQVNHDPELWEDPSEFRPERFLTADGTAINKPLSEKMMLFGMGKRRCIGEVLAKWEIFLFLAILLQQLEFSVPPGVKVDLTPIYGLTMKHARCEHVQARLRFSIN

[10] = target: T5, Cytochrome P450 2A6 (Homo sapiens, UniProt P11509); conditions: bti-tn-5b1-4; also: in other assays of this panel Not Active means under 50% inhibition at 10 µM
T5 sequence (P11509 whole entry): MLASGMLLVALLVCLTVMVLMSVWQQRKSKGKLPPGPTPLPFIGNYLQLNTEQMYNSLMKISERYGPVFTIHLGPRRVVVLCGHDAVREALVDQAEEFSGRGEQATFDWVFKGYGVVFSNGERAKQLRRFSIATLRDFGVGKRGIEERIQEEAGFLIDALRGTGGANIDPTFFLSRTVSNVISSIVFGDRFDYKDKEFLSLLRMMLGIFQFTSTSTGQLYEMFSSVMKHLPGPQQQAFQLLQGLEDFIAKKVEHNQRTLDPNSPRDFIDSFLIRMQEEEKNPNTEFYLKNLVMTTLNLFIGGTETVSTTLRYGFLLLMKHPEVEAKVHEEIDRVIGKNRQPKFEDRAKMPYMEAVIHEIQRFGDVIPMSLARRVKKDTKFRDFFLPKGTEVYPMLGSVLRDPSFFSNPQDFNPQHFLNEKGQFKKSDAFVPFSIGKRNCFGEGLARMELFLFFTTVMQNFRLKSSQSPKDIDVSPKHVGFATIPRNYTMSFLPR

Compound | IC50 [1] | Ki [1] | IC50 ([2]; cho) | IC50 ([3]; platelet) | IC50 [4] | IC50 [5] | IC50 [6] | Ki [6] | IC50 [7] | IC50 [8] | IC50 [9] | Ki [9] | IC50 [10] | Ki [10] | IC50 ([1]; read-out: IC50) | IC50 ([2]; read-out: IC50) | Ki ([2]; read-out: Ki) | IC50 ([3]; read-out: IC50)
Cn1cnc([N+](=O)[O-])c1Sc1ncnc2nc[nH]c12 [AZATHIOPRINE] | Not Active | Not Active | Not Active | Not Active | Not Active | Not Active | Not Active | Not Active | Not Active | Not Active | Not Active | Not Active | Not Active | Not Active |  |  |  | 
CC1(C)S[C@@H]2[C@H](NC(=O)[C@H](NC(=O)N3CCNC3=O)c3ccccc3)C(=O)N2[C@H]1C(=O)O [AZLOCILLIN] | Not Active | Not Active | Not Active | Not Active | Not Active | Not Active | Not Active | Not Active | Not Active | Not Active | Not Active | Not Active | Not Active | Not Active |  |  |  | 
CC[C@H](C)[C@H](N)C1=N[C@H](C(=O)N[C@@H](CC(C)C)C(=O)N[C@H](CCC(=O)O)C(=O)N[C@H](C(=O)N[C@H]2CCCCNC(=O)[C@H](CC(N)=O)NC(=O)[C@@H](CC(=O)O)NC(=O)[C@H](Cc3cnc[nH]3)NC(=O)[C@@H](Cc3ccccc3)NC(=O)[C@H]([C@@H](C)CC)NC(=O)[C@@H](CCCN)NC2=O)[C@@H](C)CC)CS1 [BACITRACIN] ({Ileψ(thiazoline)Cys}-L[dE]IK[dOrn]I[dF]H[dD]N; lactam 4-C) | Not Active | Not Active | Not Active | Not Active | Not Active | Not Active | Not Active | Not Active | Not Active | Not Active | Not Active | Not Active | Not Active | Not Active |  |  |  | 
CCOC(=O)c1ccc(N)cc1 [BENZOCAINE] | Not Active | Not Active | Not Active | Not Active | Not Active | Not Active | Not Active | Not Active | Not Active | Not Active | Not Active | Not Active | Not Active | Not Active |  |  |  | 
OCc1ccccc1 [BENZYL ALCOHOL] | Not Active | Not Active | Not Active | Not Active | Not Active | Not Active | Not Active | Not Active | Not Active | Not Active | Not Active | Not Active | Not Active | Not Active |  |  |  | 
CC(C)(Oc1ccc(CCNC(=O)c2ccc(Cl)cc2)cc1)C(=O)O [BEZAFIBRATE] | Not Active | Not Active | Not Active | Not Active | Not Active | Not Active | Not Active | Not Active | Not Active | Not Active | Not Active | Not Active | Not Active | Not Active |  |  |  | 
CCCC[C@@H](CC)COC(=O)c1ccccc1C(=O)OC[C@@H](CC)CCCC [BIS(2-ETHYLHEXYL)PHTHALATE] | Not Active | Not Active | Not Active | Not Active | Not Active | Not Active | Not Active | Not Active | Not Active | Not Active | Not Active | Not Active | Not Active | Not Active |  |  |  | 
Oc1c(Cl)cc(Cl)cc1Sc1cc(Cl)cc(Cl)c1O [BITHIONOL] |  |  |  |  | Not Active | Not Active | Not Active | Not Active | Not Active | Not Active | Not Active | Not Active | Not Active | Not Active | 5.02 µM | 4.66 µM | 1.55 µM | 1.84 µM
Brc1ccccc1 [BROMOBENZENE] | Not Active | Not Active | Not Active | Not Active | Not Active | Not Active | Not Active | Not Active | Not Active | Not Active | Not Active | Not Active | Not Active | Not Active |  |  |  | 
CC[C@@]1(O)C(=O)OCc2c1cc1n(c2=O)Cc2cc3ccccc3nc2-1 [CAMPTOTHECIN] | Not Active | Not Active | Not Active | Not Active | Not Active | Not Active | Not Active | Not Active | Not Active | Not Active | Not Active | Not Active | Not Active | Not Active |  |  |  | 
